Reference: patent publication US11034685B2, “Aminopyridine derivatives as TAM family kinase inhibitors” (SignalChem Lifesciences Corporation, priority 2013, dated 2021)

Tests used:
Format in all cases: biochemical
human Axl (473-end) = target: T1, human Axl (473-end) (Homo sapiens, UniProt P30530); test: Kinase enzymatic activity assay ([33P]-ATP phosphate transfer), Axl; conditions: inhibitory activity on Axl; class symbols
T1 construct: GST (N); made in house; host or cells: Sf9 insect cells (baculovirus)
T1 sequence (P30530 473-894 limits assumed): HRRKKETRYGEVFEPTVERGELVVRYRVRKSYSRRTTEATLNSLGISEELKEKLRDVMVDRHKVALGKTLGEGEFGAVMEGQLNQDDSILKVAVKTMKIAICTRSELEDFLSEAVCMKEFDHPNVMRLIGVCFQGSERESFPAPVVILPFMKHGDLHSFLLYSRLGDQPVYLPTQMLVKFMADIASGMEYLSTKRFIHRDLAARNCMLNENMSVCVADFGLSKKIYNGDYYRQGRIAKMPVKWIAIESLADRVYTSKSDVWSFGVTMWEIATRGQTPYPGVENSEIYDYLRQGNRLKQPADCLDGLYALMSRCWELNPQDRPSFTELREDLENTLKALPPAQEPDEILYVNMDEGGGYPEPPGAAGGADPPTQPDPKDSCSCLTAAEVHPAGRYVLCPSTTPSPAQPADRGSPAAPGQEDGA
Description: (§1) Preparation of Active Recombinant Kinase Proteins:
(§2) Recombinant human Tyro3 (455-end, the gene accession number NM_006293), human Axl (473-end, the gene accession number NM_021913) and human Mer (578-872, the gene accession number NM_006343) were independently expressed by baculovirus in Sf9 insect cells using an N-terminal GST tag. The recombinant proteins were stored at −70° C. in a medium containing 50 mM Tris-HCl, pH 7.5, 150 mM NaCl, 10 mM glutathione, 0.1 mM EDTA, 0.25 mM DTT, 0.1 mM PMSF and 25% glycerol. The recombinant proteins were aliquoted into smaller quantities after centrifugation to avoid repeated handling and multiple freeze/thaw cycles for the most favorable performance.
(§3) Preparation of Assay Reagents:
(§4) Kinase Assay Buffer: This buffer solution consisted of the following components: 25 mM MOPS, pH 7.2, 12.5 mM β-glycerol-phosphate, 25 mM MgCl2, 5 mM EGTA, 2 mM EDTA and DTT 0.25 mM which was added prior to use.
(§5) Kinase Dilution Buffer: Kinase Assay Buffer was diluted at a 1:4 ratio (5× dilution) with distilled water.
(§6) [^33P]-ATP assay cocktail: In a designated radioactive working area, a 250 μM [^33P]-ATP assay cocktail was prepared by the addition of the following components: 150 μL of 10 mM ATP stock solution, 100 μL [^33P]-ATP (1 mci/100 μL), 5.75 mL of kinase assay buffer. This solution was stored in 1 mL aliquots at −20 OC.
(§7) ATP stock solution (10 mM): The ATP stock solution was prepared by dissolving 55 mg of ATP in 10 mL of kinase assay buffer. It was stored in 200 μL aliquots at −20° C.
(§8) Active Kinase Stock Solution: The active recombinant kinase protein (0.1 μg/μL) was diluted with Kinase Dilution Buffer and the activity was assayed using a serial dilution method. The specific activity is expressed in nmoL/min/mg.
(§9) Substrates: poly(4:1 glu:tyr) is the substrate used for each kinase Tyro3, Axl and Mer: The peptide substrate was dissolved in water to give the final concentration of 1 mg/mL.
(§10) Test compound solution: Test compound was dissolved in DMSO to obtain a 10 mM solution. The assay solution was prepared by adding 5 μL of this solution to […] of 10% DMSO/water to obtain the final concentration of 50 μM.
(§11) The enzymatic activity of all three kinases was determined as follows. Using a 96-well plate, the wells were divided into three categories: Blank wells, […] and Test wells. In Test wells, 5 μL of the test compound solution and 5 μL of the substrate solution were added. In Control wells, 5 μL of 10% DMSO/water and 5 μL of the substrate solution were added. In Blank wells, 10 μL of 10% DMSO/water was added. To each well was added 10 μL of Active Kinase Stock Solution to make up the volume in each well to 20 μL. All test samples, controls and blanks were run in duplicate. The reaction was initiated by the addition of 5 μL of [^33P]-ATP assay cocktail, bringing the final volume up to 25 μL in every well. The mixture was incubated at room temperature for 30 minutes. The reaction was terminated by transferring 10 μL of the reaction mixture into a Millipore MultiScreen filter plate (cat. number MSPHN6B50). The filter plate was washed in a 1% phosphoric acid solution with constant gentle shaking for 15 minutes and this step was repeated once. After the plate was dried in air, scintillation fluid was added to each well and the radioactivity in each well in CPM was counted by a Microbeta TriLux. The corrected CPM in each test well was determined by subtracting the average value of Blank well values. Percentage of inhibition of the kinase enzymatic activity by the test compound was determined using the following formula: […]
(§12) The IC50 values were determined in a similar way following a serial dilution of the test compound. The percentage of inhibition at each concentration was calculated following the above formula. The IC50 was estimated from the curve of % Inhibition against Concentration in log unit using Prism 5, version 5.01.

human Mer (578-872) = target: T2, human Mer (578-872) (Homo sapiens, UniProt Q12866); test: Kinase enzymatic activity assay ([33P]-ATP phosphate transfer), Mer; conditions: inhibitory activity on Mer; class symbols
T2 construct: GST (N); made in house; host or cells: Sf9 insect cells (baculovirus)
T2 sequence (Q12866 578-872): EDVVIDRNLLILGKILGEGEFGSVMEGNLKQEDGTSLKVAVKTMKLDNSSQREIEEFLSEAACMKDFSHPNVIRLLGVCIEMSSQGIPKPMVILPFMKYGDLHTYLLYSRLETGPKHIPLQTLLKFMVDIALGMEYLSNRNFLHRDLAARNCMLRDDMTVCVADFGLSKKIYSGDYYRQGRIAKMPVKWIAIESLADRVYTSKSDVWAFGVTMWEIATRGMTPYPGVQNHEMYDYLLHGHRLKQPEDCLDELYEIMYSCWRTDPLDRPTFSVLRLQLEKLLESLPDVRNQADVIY
Description: as §1, §2, §3, §4, §5, §6, §7, §8, §9, §10, §11, §12

[1] = target: T3, Recombinant human Tyro3 (455-end) (Homo sapiens, UniProt Q06418); test: Kinase enzymatic activity assay ([33P]-ATP phosphate transfer), Tyro3; conditions: inhibitory activity on Tyro3; class symbols
T3 construct: GST (N); made in house; host or cells: Sf9 insect cells (baculovirus)
T3 sequence (Q06418 455-890 limits assumed): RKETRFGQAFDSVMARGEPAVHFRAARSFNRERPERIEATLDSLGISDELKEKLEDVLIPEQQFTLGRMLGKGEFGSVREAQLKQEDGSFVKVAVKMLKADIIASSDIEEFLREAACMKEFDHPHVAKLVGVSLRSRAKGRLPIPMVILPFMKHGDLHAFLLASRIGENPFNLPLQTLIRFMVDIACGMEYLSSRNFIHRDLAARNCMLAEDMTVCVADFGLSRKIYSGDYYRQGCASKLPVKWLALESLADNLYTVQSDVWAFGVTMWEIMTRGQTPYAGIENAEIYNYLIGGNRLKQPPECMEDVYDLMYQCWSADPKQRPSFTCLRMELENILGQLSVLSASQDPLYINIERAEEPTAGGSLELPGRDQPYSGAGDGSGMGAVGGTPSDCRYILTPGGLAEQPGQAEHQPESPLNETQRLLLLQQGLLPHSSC
Description: as §1, §2, §3, §4, §5, §6, §7, §8, §9, §10, §11, §12

SMILES	IC50 (human Axl (473-end)) [µM]	IC50 (human Mer (578-872)) [µM]	IC50 [1] [µM]
Nc1ncc(-c2cnn(C3CCOCC3)c2)cc1-c1ncc(-c2ccc(Cl)cc2)o1	> 10	> 10	> 10
CCCCCCCCCCCCN1CCC(n2cc(-c3cnc(N)c(-c4ncc(-c5ccccc5)o4)c3)cn2)CC1	< 0.5	0.5 to 1	< 0.5
CC(=O)N1CCC(n2cc(-c3cnc(N)c(-c4nc(-c5ccccc5)no4)c3)cn2)CC1 [1-(4-(4-(6-amino-5-(3-phenyl-1,2,4-oxadiazol-5-yl)pyridin-3-yl)-1H-pyrazol-1-yl)piperidin-1-yl)ethanone]	< 0.5	< 0.5	< 0.5
CC(C)CCC(=O)N1CCC(n2cc(-c3cnc(N)c(-c4nnc(-c5c(Cl)cccc5Cl)o4)c3)cn2)CC1 [1-(4-(4-(6-amino-5-(5-(2,6-dichlorophenyl)-1,3,4-oxadiazol-2-yl)pyridin-3-yl)-1H-pyrazol-1-yl)piperidin-1-yl)-4-methylpentan-1-one]	< 0.5	< 0.5	0.5 to 1
CC(C)(C)C(=O)N1CCC(n2cc(-c3cnc(N)c(-c4ncc(-c5cccc(Cl)c5)o4)c3)cn2)CC1 [1-(4-(4-(6-amino-5-(5-(3-chlorophenyl)oxazol-2-yl)pyridin-3-yl)-1H-pyrazol-1-yl)piperidin-1-yl)-2,2-dimethylpropan-1-one]	< 0.5	1 to 10	< 0.5
Nc1ncc(-c2cnn(C3CCN(C(=O)Cc4ccccc4)CC3)c2)cc1-c1ncc(-c2cccc(Cl)c2)o1 [1-(4-(4-(6-amino-5-(5-(3-chlorophenyl)oxazol-2-yl)pyridin-3-yl)-1H-pyrazol-1-yl)piperidin-1-yl)-2-phenylethanone]	< 0.5	1 to 10	< 0.5
CC(=O)N1CCC(n2cc(-c3cnc(N)c(-c4ncc(-c5ccc(Cl)cc5)o4)c3)cn2)CC1 [1-(4-(4-(6-amino-5-(5-(4-chlorophenyl)oxazol-2-yl)pyridin-3-yl)-1H-pyrazol-1-yl)piperidin-1-yl)ethanone]	> 10	> 10	> 10
Nc1ncc(-c2cnn(C3CCNCC3)c2)cc1-c1nnc(-c2c(Cl)cccc2Cl)o1 [3-(5-(2,6-dichlorophenyl)-1,3,4-oxadiazol-2-yl)-5-(1-(piperidin-4-yl)-1H-pyrazol-4-yl)pyridin-2-amine]	< 0.5	–	< 0.5
CC(C)(C)OC(=O)N1CCC(n2cc(-c3cnc(N)c(-c4nnc(-c5c(Cl)cccc5Cl)o4)c3)cn2)CC1 [tert-butyl 4-(4-(6-amino-5-(5-(2,6-dichlorophenyl)-1,3,4-oxadiazol-2-yl)pyridin-3-yl)-1H-pyrazol-1-yl)piperidine-1-carboxylate]	0.5 to 1	–	1 to 10

The remaining lines, values ahead:

IC50 (human Axl (473-end)) [µM]	IC50 (human Mer (578-872)) [µM]	IC50 [1] [µM]	SMILES
< 0.5	< 0.5	< 0.5	Nc1ncc(-c2cnn(C3CCNCC3)c2)cc1-c1nnc(C2CCCCC2)o1
< 0.5	1 to 10	< 0.5	Nc1ncc(-c2cnn(C3CCN(C(=O)c4ccccc4)CC3)c2)cc1-c1ncc(-c2cccc(Cl)c2)o1
0.5 to 1	< 0.5	1 to 10	CC(C)(C)OC(=O)N1CCC(n2cc(-c3cnc(N)c(-c4nnc(-c5ccc(C(C)(C)C)cc5)o4)c3)cn2)CC1
0.5 to 1	1 to 10	1 to 10	Nc1ncc(-c2cnn(C3CCN(C(=O)Cc4ccccc4)CC3)c2)cc1-c1nc(-c2ccccc2)no1 [1-(4-(4-(6-amino-5-(3-phenyl-1,2,4-oxadiazol-5-yl)pyridin-3-yl)-1H-pyrazol-1-yl)piperidin-1-yl)-2-phenylethanone]
1 to 10	1 to 10	1 to 10	Nc1ncc(-c2cnn(C3CCN(C(=O)Cc4ccccc4)CC3)c2)cc1-c1nnc(-c2c(Cl)cccc2Cl)o1 [1-(4-(4-(6-amino-5-(5-(2,6-dichlorophenyl)-1,3,4-oxadiazol-2-yl)pyridin-3-yl)-1H-pyrazol-1-yl)piperidin-1-yl)-2-phenylethanone]
< 0.5	< 0.5	< 0.5	CC(=O)N1CCC(n2cc(-c3cnc(N)c(-c4nnc(-c5c(Cl)cccc5Cl)o4)c3)cn2)CC1 [1-(4-(4-(6-amino-5-(5-(2,6-dichlorophenyl)-1,3,4-oxadiazol-2-yl)pyridin-3-yl)-1H-pyrazol-1-yl)piperidin-1-yl)ethanone]
< 0.5	< 0.5	< 0.5	CC(=O)N1CCC(n2cc(-c3cnc(N)c(-c4ncc(-c5cccc(Cl)c5)o4)c3)cn2)CC1 [1-(4-(4-(6-amino-5-(5-(3-chlorophenyl)oxazol-2-yl)pyridin-3-yl)-1H-pyrazol-1-yl)piperidin-1-yl)ethanone]
< 0.5	1 to 10	< 0.5	Nc1ncc(-c2cnn(C3CCN(C(=O)Cc4ccccc4)CC3)c2)cc1-c1ncc(-c2ccc(Cl)cc2)o1 [1-(4-(4-(6-amino-5-(5-(4-chlorophenyl)oxazol-2-yl)pyridin-3-yl)-1H-pyrazol-1-yl)piperidin-1-yl)-2-phenylethanone]
< 0.5	–	< 0.5	Nc1ncc(-c2cnn(C3CCNCC3)c2)cc1-c1nnc(-c2cc(F)ccc2F)o1 [3-(5-(2,5-difluorophenyl)-1,3,4-oxadiazol-2-yl)-5-(1-(piperidin-4-yl)-1H-pyrazol-4-yl)pyridin-2-amine]
